ChEMBL document CHEMBL1201862, “PubChem BioAssay data set” (2004)
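Interpolation was linear, between the two tested concentrations surrounding the appropriate level; five concentrations were tested over 48 hours in 96-well plates. Here, GI50 denotes the concentration required for 50% inhibition of growth.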 Activity calls are given as the source filed them. Rule as the data show it: active = GI50 up to about 1.1 µM and inactive = higher.

What was measured:
Assay in all cases: NCI tumour cell line growth inhibition, 48 h
SW-620 = system: SW-620
RXF 393 = system: RXF 393
A498 = system: A498
T47D = system: T47D
HOP-92 = system: HOP-92
NCI-H522 = system: NCI-H522
NCI-H226 = system: NCI-H226
OVCAR-3 = system: OVCAR-3
PC-3 = system: PC-3
SNB-19 = system: SNB-19
786-0 = system: 786-0
SNB-75 = system: SNB-75
MCF7 = system: MCF7
EKVX = system: EKVX
NCI-H23 = system: NCI-H23
DU-145 = system: DU-145
BT-549 = system: BT-549
HCT-15 = system: HCT-15
MDA-MB-435 = system: MDA-MB-435

Row | Structure (SMILES) | GI50 (SW-620) | GI50 (RXF 393) | GI50 (A498) | GI50 (T47D) | GI50 (HOP-92) | GI50 (NCI-H522) | GI50 (NCI-H226) | GI50 (OVCAR-3) | GI50 (PC-3) | GI50 (SNB-19) | GI50 (786-0) | GI50 (SNB-75) | GI50 (MCF7) | GI50 (EKVX) | GI50 (NCI-H23) | GI50 (DU-145) | GI50 (BT-549) | GI50 (HCT-15) | GI50 (MDA-MB-435)
1 | O=C(c1ccccc1)c1ccc2c(c1)nc1n2C(c2c(F)cccc2F)SC1 (stereo not given) | 37.2 µM (inactive) | 29 µM (inactive) | 19.5 µM (inactive) | 4.71 µM (inactive) | 40.5 µM (inactive) | 34.7 µM (inactive) | 34.8 µM (inactive) | 19.9 µM (inactive) | 16.3 µM (inactive) | 32.1 µM (inactive) | 27.4 µM (inactive) | 18.9 µM (inactive) | 26.5 µM (inactive) | 11.5 µM (inactive) | 28.8 µM (inactive) | 40.5 µM (inactive) | 26.7 µM (inactive) | 36.6 µM | 27.3 µM (inactive)
2 | COc1ccc(CN(CCc2c[nH]c3ccccc23)Cc2ccc(OC)cc2)cc1 | 4.19 µM (inactive) | 4.69 µM (inactive) | 4.24 µM (inactive) | 1.33 µM (inactive) | 3.29 µM (inactive) | 2.88 µM (inactive) | 1.37 µM (inactive) | 3.23 µM (inactive) | 3.66 µM (inactive) | 5.13 µM (inactive) | 3.08 µM (inactive) | 6.25 µM (inactive) | 3.47 µM (inactive) | 5.26 µM (inactive) | 2.31 µM (inactive) | 4.65 µM (inactive) | 5.71 µM (inactive) | 3.44 µM | 2.76 µM (inactive)
3 | Cc1ccc(S(=O)(=O)N2CCC(=O)c3cc(Br)ccc32)cc1 | 6.04 µM (inactive) | 12.5 µM (inactive) | 15 µM (inactive) | 23.1 µM (inactive) | 18.6 µM (inactive) | 7.93 µM (inactive) | 37.7 µM (inactive) | 9.93 µM (inactive) | 6.01 µM (inactive) | 18.4 µM (inactive) | 10.1 µM (inactive) | 14.6 µM (inactive) | 4.45 µM (inactive) | 23.9 µM (inactive) | 19.2 µM (inactive) | 8.67 µM (inactive) | 13.9 µM (inactive) | 4.88 µM | 1.79 µM (inactive)
4 | O=C1Nc2ccc(S(=O)(=O)N(CCO)CCO)cc2/C1=C1/Nc2ccccc2C1=O | > 100 µM (inactive) | 1.56 µM (inactive) | > 100 µM (inactive) | 0.679 µM (active) | > 100 µM (inactive) | > 100 µM (inactive) | > 100 µM (inactive) | 18.2 µM (inactive) | 30.3 µM (inactive) | > 100 µM (inactive) | > 100 µM (inactive) | 2.82 µM (inactive) | 0.615 µM (active) | > 100 µM (inactive) | > 100 µM (inactive) | 13.3 µM (inactive) | > 100 µM (inactive) | > 100 µM | > 100 µM (inactive)
5 | CCCCCC(=O)OC[n+]1ccc(-c2c(COC(=O)NC(C)C)c(COC(=O)NC(C)C)c3n2CCC3)cc1 | > 100 µM (inactive) | > 100 µM (inactive) | > 100 µM (inactive) | > 100 µM (inactive) | > 100 µM (inactive) | > 100 µM (inactive) | > 100 µM (inactive) | > 100 µM (inactive) | > 100 µM (inactive) | > 100 µM (inactive) | > 92 µM (inactive) | > 100 µM (inactive) | 77.1 µM (inactive) | > 100 µM (inactive) | > 100 µM (inactive) | > 35.5 µM (inactive) | > 100 µM (inactive) | > 100 µM | > 100 µM (inactive)
6 | C[C@]12CCC3c4ccc(O)cc4CC[C@H]3C1CC(=O)N(N)C2=O (stereo not given in full) | > 100 µM (inactive) | > 100 µM (inactive) | > 100 µM (inactive) | > 100 µM (inactive) | > 100 µM (inactive) | > 100 µM (inactive) | > 100 µM (inactive) | > 100 µM (inactive) | > 100 µM (inactive) | > 100 µM (inactive) | > 100 µM (inactive) | > 100 µM (inactive) | > 100 µM (inactive) | 64.7 µM (inactive) | > 100 µM (inactive) | > 100 µM (inactive) | > 100 µM (inactive) | – | > 100 µM (inactive)
7 | CC(=O)SSC1(Cl)C(C)(C)C(Cl)(SSC(C)=O)C1(C)C (stereo not given) | 40.1 µM (inactive) | 21 µM (inactive) | 67.5 µM (inactive) | 20.8 µM (inactive) | > 100 µM (inactive) | 38.8 µM (inactive) | > 100 µM (inactive) | 61.4 µM (inactive) | 41.3 µM (inactive) | 35 µM (inactive) | 49.2 µM (inactive) | 30.4 µM (inactive) | 33.6 µM (inactive) | 39.9 µM (inactive) | 57.1 µM (inactive) | 29.6 µM (inactive) | > 100 µM (inactive) | 34.7 µM | 49.1 µM (inactive)
8 | CC(=O)O[C@H]1C(=O)[C@@]2(C)[C@H]([C@H](OC(=O)c3ccccc3)[C@]3(O)C[C@H](OC(=O)[C@H](O)[C@@H](NC(=O)CC(C)(C)C)c4ccccc4)C(C)=C1C3(C)C)C1(OC(C)=O)CO[C@@H]1C[C@@H]2O (stereo not given in full) | 0.00171 µM (active) | 0.00796 µM (active) | 0.303 µM (active) | 0.00908 µM (active) | 0.0106 µM (active) | 0.00143 µM (active) | 0.0194 µM (active) | – | 0.00183 µM (active) | 0.122 µM (active) | 0.0251 µM (active) | < 0.001 µM (active) | < 0.001 µM (active) | 0.193 µM (active) | 0.00237 µM (active) | 0.00836 µM (active) | 0.0968 µM (active) | 0.223 µM | < 0.001 µM (active)
